From ChEMBL document CHEMBL2074324, “Multidrug resistance P-glycoprotein hampers the access of cortisol but not of corticosterone to mouse and human brain” (Endocrinology, 2001)

Biological target: ATP-dependent translocase ABCB1 (Mus musculus, UniProt P21447)
Assay: TP_TRANSPORTER: increase in brain concentration in mdr1a(-/-) mouse
Type: functional, organism-based
Conditions: in vivo

ATP-dependent translocase ABCB1, sequence (P21447 whole entry): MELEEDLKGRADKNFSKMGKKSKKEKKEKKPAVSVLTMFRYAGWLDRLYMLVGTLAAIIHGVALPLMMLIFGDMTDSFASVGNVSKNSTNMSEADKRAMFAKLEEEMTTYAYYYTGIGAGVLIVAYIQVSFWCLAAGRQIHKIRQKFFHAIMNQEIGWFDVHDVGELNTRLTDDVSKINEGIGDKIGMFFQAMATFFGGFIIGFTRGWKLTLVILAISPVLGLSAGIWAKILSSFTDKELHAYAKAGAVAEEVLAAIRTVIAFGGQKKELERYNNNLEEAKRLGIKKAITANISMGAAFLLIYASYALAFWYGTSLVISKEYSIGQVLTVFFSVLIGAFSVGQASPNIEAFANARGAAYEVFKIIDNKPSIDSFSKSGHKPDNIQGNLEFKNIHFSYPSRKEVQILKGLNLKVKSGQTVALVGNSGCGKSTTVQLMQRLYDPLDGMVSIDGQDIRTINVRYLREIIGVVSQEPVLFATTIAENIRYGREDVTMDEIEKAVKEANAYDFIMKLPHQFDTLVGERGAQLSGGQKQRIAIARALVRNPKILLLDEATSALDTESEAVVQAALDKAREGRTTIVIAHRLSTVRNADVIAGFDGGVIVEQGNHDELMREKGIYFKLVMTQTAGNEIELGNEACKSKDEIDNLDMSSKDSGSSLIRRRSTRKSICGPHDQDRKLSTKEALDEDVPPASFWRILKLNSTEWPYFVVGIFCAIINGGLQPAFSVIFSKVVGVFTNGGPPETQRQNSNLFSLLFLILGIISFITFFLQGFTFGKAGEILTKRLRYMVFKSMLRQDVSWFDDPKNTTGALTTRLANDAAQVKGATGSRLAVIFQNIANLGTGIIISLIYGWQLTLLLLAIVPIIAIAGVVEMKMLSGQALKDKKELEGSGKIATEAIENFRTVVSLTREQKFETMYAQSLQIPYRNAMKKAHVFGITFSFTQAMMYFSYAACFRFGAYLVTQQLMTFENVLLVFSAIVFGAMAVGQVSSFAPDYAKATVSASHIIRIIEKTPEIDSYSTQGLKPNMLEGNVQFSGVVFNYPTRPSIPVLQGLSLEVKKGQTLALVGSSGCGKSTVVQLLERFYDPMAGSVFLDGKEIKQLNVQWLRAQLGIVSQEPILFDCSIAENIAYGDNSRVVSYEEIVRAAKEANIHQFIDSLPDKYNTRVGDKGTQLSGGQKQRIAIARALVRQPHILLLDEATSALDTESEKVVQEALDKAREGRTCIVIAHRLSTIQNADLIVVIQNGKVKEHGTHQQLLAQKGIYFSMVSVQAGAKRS

- Activity: substrate [+]
SMILES: C[C@]12CCC(=O)C=C1CC[C@@H]1[C@@H]2[C@@H](O)C[C@@]2(C)[C@H]1CC[C@]2(O)C(=O)CO [HYDROCORTISONE]
